This passage reports GI50 and TGI results from PubChem BioAssay (NCI).

Each structure is given as a SMILES string. Where “and” joins values, the source holds several entries; their conditions need not be identical. Identical values can stand only once.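 Test compounds were applied to cells in 96-well plates for 48 hours at 5 doses. Here, GI50 denotes the concentration required for 50% inhibition of growth. At the TGI there is no net growth.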

Experiment in all cases: NCI-60 cell line screen, 48 h
Assay [1] relates to K-562 leukemia.
The subject of assay [2] is SNB-19 CNS.
For assay [3], the system named is SR leukemia.
For assay [4], the system named is UO-31 renal.
For assay [5], the system named is EKVX NSCLC.
Assay [6] relates to MOLT-4 leukemia.
The subject of assay [7] is NCI-H522 lung.
In assay [8] the test system is BT-549 breast.
Assay [9] concerns NCI/ADR-RES ovarian.
Assay [10] relates to MCF7 breast.

Take `N.N.N.N.N.N.O=N[O-].[Br-].[Co+3].[Co+3].[OH3+].[OH3+]`: the GI50 in assay [1] is over 100 µM; in assay [2], over 100 µM; in assay [3], over 100 µM; in assay [4] it was over 100 µM; in [5], 74.3 µM; in assay [6], over 100 µM. Besides, the TGI in assay [1], in assay [2], in assay [3], in [4], in assay [5] and in [6] was over 100 µM throughout.

Take `Cc1nn(-c2ccccc2)c(-c2ccccc2[N+](=O)[O-])c1CC#N`: the TGI in assay [1], in assay [2], in assay [7], in [4], in assay [5] and in [6] was over 100 µM throughout.

As for `OC12CC/C(=N/OCc3ccccc3)CC1c1ccccc12` (centres undefined), the TGI in [1], in assay [2], in assay [7], in [4], in assay [5] and in assay [6] was over 100 µM each time.

Take `O=[N+]([O-])c1nccn1COCCBr`: the TGI in assay [1], in assay [2], in [3], in assay [7], in assay [4] and in [5] was over 100 µM throughout. This molecule registered a TGI in [6] of over 100 µM.

Regarding `COc1cc(Br)c(C=Nc2cccc3ccc(OS(=O)(=O)c4cccc([N+](=O)[O-])c4)cc23)cc1OC`, the TGI in assay [1], in [2], in assay [3], in assay [7], in [4] and in assay [5] was over 100 µM in each case. The TGI in assay [6] is over 100 µM.

Regarding `c1cc(CNC2C3CCC(C3)C2c2c[nH]c3ccccc23)cc(CNC2C3CCC(C3)C2c2c[nH]c3ccccc23)c1` (centres undefined), the TGI in [2] was found to be 2.26 µM; in assay [3], 0.773 µM; in assay [7], 2.76 µM; in [8], 3.24 µM; in assay [5] it was 3.34 µM; in assay [6], 3.38 µM. The TGI in [9] is 2.6 µM and 1.99 µM. In addition, the GI50 in [6] was 1.07 µM; in assay [9] it was 1.21 µM and 0.607 µM.

As for `CN1C(=O)C(Cl)(C(Cl)(Cl)S(=O)(=O)O)C(=O)c2ccccc21` (centres undefined), the TGI in assay [1], in assay [2], in assay [3], in assay [7], in [4] and in assay [5] was over 100 µM each time. This molecule also registered a TGI in assay [6] of over 100 µM.

For `CNC(=S)N/N=C/c1ccc([N+](=O)[O-])s1`, the TGI in assay [1], in [2], in assay [3], in assay [7], in assay [8] and in assay [4] was over 10 µM each time. The TGI in assay [5], in [6] and in [9] was over 10 µM in each case.

With `CC(=O)OC1[C@H]2c3cc4c(cc3CN3CCC(=C[C@@H]1O)C23)OCO4` (some centres undefined), the TGI in [1], in assay [2], in assay [3], in assay [7], in [4] and in assay [5] was over 100 µM throughout. The molecule further yielded a TGI in [6] of over 100 µM.

For `BrC1(Br)C2/C=C\CCCCC21` (centres undefined), the TGI in [1], in assay [2], in assay [3], in [7], in assay [5] and in assay [6] was over 100 µM each time.

Consider `C=C(C=O)CCCC(C)[C@@H]1CCC23CC12CCC1[C@@]2(C)CCC(OC(C)=O)C(C)(C)C2CC(OC2OC(COC(C)=O)C(O)C(O)C2O)[C@]13C` (some centres undefined), for which the TGI was 6.78 µM in assay [1]; 13.2 µM in assay [2]; 1.53 µM in assay [7]; 11 µM in assay [4]; 13.7 µM in [5]; 3.03 µM in assay [6].

As to `C[N+]1(C)C/C(=C\c2ccncc2)C(=O)/C(=C/c2ccncc2)C1`, the TGI in assay [2] is over 100 µM; in assay [3], over 100 µM; in [7], 42 µM; in [4] it was over 100 µM; in assay [5], over 100 µM; in assay [6], over 100 µM.

With `S=c1nc(-c2cccnc2)[nH][nH]1`, the TGI in assay [2] was over 100 µM; in [3] it was over 100 µM; in [7], over 1 µM.

As to `CCOc1ccccc1NC(=O)CCc1nc(=S)[nH][nH]1`, the TGI in assay [1], in assay [2], in assay [3], in assay [7], in [4] and in assay [5] was over 100 µM each time. Further, the TGI in assay [6] was over 100 µM.

`COC(=O)c1nc(N)[nH]c(=O)c1CCCCCc1c(C(=O)OC)nc(N)[nH]c1=O`: the TGI in assay [1], in assay [2], in assay [7], in assay [4] and in assay [5] was over 50 µM each time.

Consider `C=C=C(C(=O)OC)S(=O)c1ccc([N+](=O)[O-])cc1[N+](=O)[O-]` (centres undefined), for which the TGI is 46.3 µM in assay [1]; over 100 µM in [2]; 35.4 µM in [3]; 21 µM in assay [7]; 98.2 µM in assay [4]; over 100 µM in [5]. In assay [6], this molecule had a TGI of 50.3 µM.

In the case of `COC(=O)c1c(-c2ccccc2)sc(-c2cccc3ccccc23)c1C(=O)OC`, the TGI in [1], in assay [2], in assay [7], in [4], in [5] and in assay [6] was over 100 µM each time.

Regarding `CCOC(=O)C(/C=N\C(=S)Nc1ccc(OCC)cc1)=C(/O)c1ccccc1`, the TGI in assay [1], in [2], in assay [3], in [7], in assay [5] and in assay [6] was over 100 µM in each case. In addition, the TGI in assay [10] and in assay [9] was over 100 µM each time.
